# Laboratory results published in ChEMBL document CHEMBL3872220, “Amphiphilic xanthones as a potent chemical entity of anti-mycobacterial agents with membrane-targeting properties” (Eur J Med Chem, 2016).
# Tests used:
# CYP2D6 = CYP2D6 (Homo sapiens, UniProt P10635); experiment: Inhibition of CYP2D6 in human liver microsomes at 10 uM using bufuralol as substrate preincubated for 5 min followed by NADPH addition measured after 10 mins by LC-MS/MS method relative to control; format: ADME; conditions: probe bufuralol
# [1] = system: Mycolicibacterium smegmatis; experiment: Antimycobacterial activity against Mycobacterium smegmatis MC2 155 assessed as ATP leakage by measuring intracellular ATP at 2 times MIC measured at 3 hrs post dose by luciferase reporter gene assay; format: functional, str. MC2 155
# [2] = system: Mycolicibacterium smegmatis; experiment: Induction of membrane integrity impairment in Mycobacterium smegmatis MC2 155 at 2 to 4 times MIC measured after 3 hrs by SYTO-9/propium iodide staining based Baclight assay relative to control; format: functional, str. MC2 155
# [3] = system: Mycolicibacterium smegmatis; experiment: Antimycobacterial activity against Mycobacterium smegmatis MC2 155 assessed as ATP leakage by measuring extracellular ATP at 0.5 times MIC measured at 24 hrs post dose by luciferase reporter gene assay; format: functional, str. MC2 155
# [4] = system: Mycolicibacterium smegmatis; experiment: Antimycobacterial activity against Mycobacterium smegmatis MC2 155 after 24 hrs by broth dilution assay; format: functional; conditions: str. MC2 155, 24 h
# [5] = system: Mycolicibacterium smegmatis; experiment: Antimycobacterial activity against Mycobacterium smegmatis MC2 155 assessed as ATP leakage by measuring intracellular ATP at 4 times MIC measured at 1 hr of post dose by luciferase reporter gene assay; format: functional, str. MC2 155
# [6] = system: Mycolicibacterium smegmatis; experiment: Antimycobacterial activity against Mycobacterium smegmatis MC2 155 assessed as inhibition of respiratory ATP synthesis by measuring ATP level at 2 times MIC measured after 6 hrs by luciferase reporter gene assay (reference value: 212.7%); format: functional, str. MC2 155; parameters: scale not given: the % may be the effect or the level left
# [7] = system: Mycolicibacterium smegmatis; experiment: Antimycobacterial activity against Mycobacterium smegmatis MC2 155 assessed as ATP leakage by measuring extracellular ATP at 4 times MIC measured at 24 hrs post dose by luciferase reporter gene assay; format: functional, str. MC2 155
# CYP3A4 = CYP3A4 (Homo sapiens, UniProt P08684); experiment: Inhibition of CYP3A4 in human liver microsomes at 10 uM using midazolam as substrate preincubated for 5 min followed by NADPH addition measured after 10 mins by LC-MS/MS method relative to control; format: ADME; conditions: probe midazolam
# [8] = system: Mycolicibacterium smegmatis; experiment: Antimycobacterial activity against Mycobacterium smegmatis MC2 155 assessed as ATP leakage by measuring extracellular ATP at 4 times MIC measured immediatey after addition of compounds by luciferase reporter gene assay; format: functional, str. MC2 155
# [9] = system: Mycolicibacterium smegmatis; experiment: Antimycobacterial activity against Mycobacterium smegmatis MC2 155 assessed as ATP leakage by measuring extracellular ATP at 0.5 times MIC measured immediatey after addition of compounds by luciferase reporter gene assay by luciferase reporter gene assay by luciferase reporter gene assay; format: functional, str. MC2 155
# [10] = system: Mycolicibacterium smegmatis; experiment: Antimycobacterial activity against Mycobacterium smegmatis MC2 155 assessed as inhibition of respiratory ATP synthesis by measuring ATP level at 4 times MIC measured after 3 hrs by luciferase reporter gene assay (reference value: 158.3%); format: functional, str. MC2 155; parameters: scale not given: the % may be the effect or the level left
# [11] = system: Mycolicibacterium smegmatis; experiment: Antimycobacterial activity against Mycobacterium smegmatis MC2 155 assessed as ATP leakage by measuring intracellular ATP at 4 times MIC measured at 6 hrs post dose by luciferase reporter gene assay; format: functional, str. MC2 155
# [12] = system: Mycolicibacterium smegmatis; experiment: Antimycobacterial activity against Mycobacterium smegmatis MC2 155 assessed as ATP leakage by measuring intracellular ATP at 4 times MIC measured immediatey after addition of compounds by luciferase reporter gene assay; format: functional, str. MC2 155
# [13] = system: Mycolicibacterium smegmatis; experiment: Antimycobacterial activity against Mycobacterium smegmatis MC2 155 assessed as ATP leakage by measuring extracellular ATP at 2 times MIC measured at 3 hrs post dose by luciferase reporter gene assay; format: functional, str. MC2 155
# [14] = system: Mycolicibacterium smegmatis; experiment: Antimycobacterial activity against Mycobacterium smegmatis MC2 155 assessed as ATP leakage by measuring intracellular ATP at 4 times MIC measured at 3 hrs post dose by luciferase reporter gene assay; format: functional, str. MC2 155
# [15] = system: Mycolicibacterium smegmatis; experiment: Antimycobacterial activity against Mycobacterium smegmatis MC2 155 assessed as ATP leakage by measuring extracellular ATP at 4 times MIC measured at 9 hrs post dose by luciferase reporter gene assay; format: functional, str. MC2 155
# [16] = system: Mycolicibacterium smegmatis; experiment: Antimycobacterial activity against Mycobacterium smegmatis MC2 155 assessed as ATP leakage by measuring extracellular ATP at 4 times MIC measured at 6 hrs post dose by luciferase reporter gene assay; format: functional, str. MC2 155
# [17] = system: Mycolicibacterium smegmatis; experiment: Antimycobacterial activity against Mycobacterium smegmatis MC2 155 assessed as ATP leakage by measuring extracellular ATP at MIC measured at 9 hrs post dose by luciferase reporter gene assay; format: functional, str. MC2 155
# [18] = system: Mycolicibacterium smegmatis; experiment: Antimycobacterial activity against Mycobacterium smegmatis MC2 155 assessed as ATP leakage by measuring extracellular ATP at 4 times MIC measured at 3 hrs post dose by luciferase reporter gene assay; format: functional, str. MC2 155
# Lipid bilayer = experiment: Induction of membrane damage in CI/DOPG/DOPI large unilamellar vesicles assessed as calcein leakage at 1:2 compound to lipid ratio by fluorescence based […] assay relative to control
# [19] = system: Mycolicibacterium smegmatis; experiment: Antimycobacterial activity against Mycobacterium smegmatis MC2 155 assessed as inhibition of respiratory ATP synthesis by measuring ATP level at 2 times MIC measured after 6 hrs by luciferase reporter gene assay (reference value: 152%); format: functional, str. MC2 155; parameters: scale not given: the % may be the effect or the level left
# [20] = system: Mycolicibacterium smegmatis; experiment: Antimycobacterial activity against Mycobacterium smegmatis MC2 155 assessed as ATP leakage by measuring intracellular ATP at 4 times MIC measured at 24 hrs post dose by luciferase reporter gene assay; format: functional, str. MC2 155
# [21] = system: Mycolicibacterium smegmatis; experiment: Antimycobacterial activity against Mycobacterium smegmatis MC2 155 assessed as ATP leakage by measuring extracellular ATP at MIC measured at 6 hrs post dose by luciferase reporter gene assay; format: functional, str. MC2 155
# [22] = system: Mycolicibacterium smegmatis; experiment: Antimycobacterial activity against Mycobacterium smegmatis MC2 155 assessed as inhibition of respiratory ATP synthesis by measuring ATP level at 2 times MIC measured after 1 hr by luciferase reporter gene assay (reference value: 90.6%); format: functional, str. MC2 155; parameters: scale not given: the % may be the effect or the level left
# [23] = system: Mycolicibacterium smegmatis; experiment: Antimycobacterial activity against Mycobacterium smegmatis MC2 155 assessed as ATP leakage by measuring intracellular ATP at 0.5 times MIC measured at 6 hrs post dose by luciferase reporter gene assay; format: functional, str. MC2 155
# [24] = system: Mycolicibacterium smegmatis; experiment: Antimycobacterial activity against Mycobacterium smegmatis MC2 155 assessed as ATP leakage by measuring intracellular ATP at MIC measured at 6 hrs post dose by luciferase reporter gene assay; format: functional, str. MC2 155
# [25] = system: Mycobacterium tuberculosis; experiment: Antimycobacterial activity against Mycobacterium tuberculosis H37Rv ATCC 27294 assessed as reduction in 2 log10 bacterial colonies measured after 14 to 21 days by agar dilution method; format: functional
# [26] = system: Mycobacterium tuberculosis; experiment: Antimycobacterial activity against Mycobacterium tuberculosis clinical isolate 01;111 assessed as reduction in 2 log10 bacterial colonies measured after 14 to 21 days by agar dilution method; format: functional
# [27] = system: Mycobacterium tuberculosis; experiment: Antimycobacterial activity against Mycobacterium tuberculosis clinical isolate 01;095 assessed as reduction in 2 log10 bacterial colonies measured after 14 to 21 days by agar dilution method; format: functional
# [28] = system: Mycobacterium tuberculosis; experiment: Antimycobacterial activity against Mycobacterium tuberculosis clinical isolate 01;001 assessed as reduction in 2 log10 bacterial colonies measured after 14 to 21 days by agar dilution method; format: functional
# [29] = system: Mycobacterium tuberculosis; experiment: Antimycobacterial activity against Mycobacterium tuberculosis clinical isolate 01;092 assessed as reduction in 2 log10 bacterial colonies measured after 14 to 21 days by agar dilution method; format: functional
# [30] = system: Mycobacterium tuberculosis; experiment: Antimycobacterial activity against Mycobacterium tuberculosis clinical isolate 01;087 assessed as reduction in 2 log10 bacterial colonies measured after 14 to 21 days by agar dilution method; format: functional
# Sequence of CYP3A4 (P08684 whole entry): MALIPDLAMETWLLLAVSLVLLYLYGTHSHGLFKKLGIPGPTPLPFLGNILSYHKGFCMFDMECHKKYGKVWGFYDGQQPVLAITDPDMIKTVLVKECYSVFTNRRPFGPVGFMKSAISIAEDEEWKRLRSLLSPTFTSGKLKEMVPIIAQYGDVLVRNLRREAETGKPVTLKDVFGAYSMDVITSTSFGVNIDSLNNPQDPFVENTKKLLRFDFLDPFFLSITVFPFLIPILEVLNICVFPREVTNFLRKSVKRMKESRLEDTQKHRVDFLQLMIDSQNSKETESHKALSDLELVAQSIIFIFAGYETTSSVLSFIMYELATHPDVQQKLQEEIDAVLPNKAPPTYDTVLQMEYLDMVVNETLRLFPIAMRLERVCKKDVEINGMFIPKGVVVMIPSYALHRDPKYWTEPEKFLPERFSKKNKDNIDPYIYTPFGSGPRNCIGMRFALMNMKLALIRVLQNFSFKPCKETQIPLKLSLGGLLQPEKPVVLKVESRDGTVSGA
# Sequence of CYP2D6 (P10635 whole entry): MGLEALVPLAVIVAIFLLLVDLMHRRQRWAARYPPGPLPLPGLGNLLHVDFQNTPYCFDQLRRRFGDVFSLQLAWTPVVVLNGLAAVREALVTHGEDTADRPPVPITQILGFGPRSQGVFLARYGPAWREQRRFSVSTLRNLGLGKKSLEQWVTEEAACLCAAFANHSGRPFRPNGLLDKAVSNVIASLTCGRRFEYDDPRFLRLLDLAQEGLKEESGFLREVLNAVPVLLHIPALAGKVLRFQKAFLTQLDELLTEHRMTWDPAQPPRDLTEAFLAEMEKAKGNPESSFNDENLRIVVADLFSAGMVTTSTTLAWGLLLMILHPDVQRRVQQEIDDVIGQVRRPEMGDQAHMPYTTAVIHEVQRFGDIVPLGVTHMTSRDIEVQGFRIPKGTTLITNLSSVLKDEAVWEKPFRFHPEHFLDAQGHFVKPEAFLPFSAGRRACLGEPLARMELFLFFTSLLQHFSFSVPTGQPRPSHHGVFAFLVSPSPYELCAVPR
smiles,measurement,setting,value
CCCN(CCC)CCCCOc1cc2oc3cc(OCCCCN(CCC)CCC)c(OC)c(CC=C(C)C)c3c(=O)c2c(O)c1CC=C(C)C,"inhibition at 10 min, 10 µM",CYP2D6,0%
same,Activity,[1],2.6%
same,Activity,[2],>80%
same,Activity,[3],53.6%
same,MIC90,[4],3.2 µM
same,Activity,[5],5.7%
same,Activity,[6],3.9%
same,Activity,[7],88%
same,"inhibition at 10 min, 10 µM",CYP3A4,0%
same,Activity,[8],4.3%
same,Activity,[9],0%
same,Activity,[10],4.6%
same,Activity,[11],16.5%
same,Activity,[12],95.7%
same,Activity,[13],97.4%
same,Activity,[14],8.9%
same,Activity,[15],84.3%
same,Activity,[16],83.5%
same,Activity,[17],89.4%
same,Activity,[18],91.1%
same,Activity,Lipid bilayer,13.3%
same,Activity,[19],3.9%
same,Activity,[20],12%
same,Activity,[21],88%
same,Activity,[22],5.9%
same,Activity,[23],69.4%
same,Activity,[24],12%
CCN(CC)CCCCOc1cc2oc3cc(OCCCCN(CC)CC)c(OC)c(CC=C(C)C)c3c(=O)c2c(O)c1CC=C(C)C,"inhibition at 10 min, 10 µM",CYP2D6,6%
same,Activity,[1],2.7%
same,Activity,[2],>80%
same,MIC,[25],2 µg/mL
same,Activity,[3],66.7%
same,MIC90,[4],3.2 µM
same,Activity,[5],2.6%
same,Activity,[6],2.3%
same,Activity,[7],97.3%
same,"inhibition at 10 min, 10 µM",CYP3A4,12%
same,MIC,[26],4 µg/mL
same,Activity,[8],1.3%
same,MIC,[27],4 µg/mL
same,Activity,[9],0%
same,Activity,[10],2.6%
same,Activity,[11],3.3%
same,Activity,[12],98.7%
same,MIC,[28],4 µg/mL
same,Activity,[13],97.3%
same,Activity,[14],2.5%
same,Activity,[15],97.3%
same,Activity,[16],96.7%
same,Activity,[17],82.4%
same,Activity,[18],97.5%
same,Activity,Lipid bilayer,47%
same,Activity,[19],26.8%
same,Activity,[20],2.7%
same,MIC,[29],2 µg/mL
same,Activity,[21],79.9%
same,MIC,[30],8 µg/mL
same,Activity,[22],5.8%
same,Activity,[23],87.8%
same,Activity,[24],20.1%
COc1c(OCCCCN2CCOCC2)cc2oc3cc(OCCCCN4CCOCC4)c(CC=C(C)C)c(O)c3c(=O)c2c1CC=C(C)C,"inhibition at 10 min, 10 µM",CYP2D6,0%
same,Activity,[1],36.6%
same,MIC,[25],4 µg/mL
same,Activity,[3],47.5%
same,MIC90,[4],35 µM
same,Activity,[5],57.3%
same,Activity,[6],11%
same,Activity,[7],95.5%
same,"inhibition at 10 min, 10 µM",CYP3A4,32%
same,MIC,[26],4 µg/mL
same,Activity,[8],3.8%
same,MIC,[27],4 µg/mL
same,Activity,[9],0%
same,Activity,[10],26.8%
same,Activity,[11],6.7%
same,Activity,[12],96.2%
same,MIC,[28],4 µg/mL
same,Activity,[13],63.4%
same,Activity,[14],44.7%
same,Activity,[15],92.1%
same,Activity,[16],91.3%
same,Activity,[17],58.6%
same,Activity,[18],55.3%
same,Activity,[19],18.9%
same,Activity,[20],4.5%
same,MIC,[29],4 µg/mL
same,Activity,[21],36.3%
same,MIC,[30],8 µg/mL
same,Activity,[22],50.2%
same,Activity,[23],86.8%
same,Activity,[24],63.7%
